Laboratory results reported in patent US20100022635A1, “Heat shock protein 90 inhibitor dosing methods” (University of Kansas, priority 2008, published 2010).

Assays:
[1] = Pharmacokinetics: plasma and brain levels of KU-32 in mice by LC-MS; format: in vivo; settings: female Balb/c mice, 2 or 20 mg/kg, IP or IV injection, FIG. 1
Procedure: (§1) The plasma and brain levels of the Hsp90 inhibitor KU-32 as a function of time in mice were investigated following IP or IV injection to mice. Pharmacokinetics of KU-32 levels in mouse plasma and brain was determined by LC-MS. For these studies, female Balb/c mice (6-7 weeks) were injected with either 2 or 20 mg/kg KU-32 or vehicle. Mice were sacrificed at predetermined time points and plasma was collected following cardiac puncture for determination of KU-32 levels. The animals were perfused with normal saline and the brain was harvested and homogenized. Half the brain was analyzed for KU-32 levels and the remaining half was analyzed for Hsp70 levels.

Hsp70 = Hsp70 levels in mouse brain after KU-32 IP administration (Hsp70/actin densitometry); format: in vivo, mice; settings: single IP injection 2 or 20 mg/kg, frontal and hind brain sections, FIG. 2
Procedure: as §1
Changes in Hsp70 levels in mouse brain over time following KU-32 IP administration were determined. The ratio of Hsp70 to actin was determined in frontal and hind brain sections recovered from brains of mice at each indicated time point shown in FIG. 2 following administration of either 2 or 20 mg/kg KU-32, as discussed in Example 1. Densitometric analyses were performed, and the ratio of the Hsp70 immunoreactivity was determined using actin as a loading control.

[2] = Phase-solubility of KU-32 in Captisol in water; format: physicochemical
Procedure: On day 12 of the study mice received 2, 5 or 10 mg/kg KU-32 by IP injection on a daily basis. KU-32 was formulated at all concentrations in 0.05 M Captisol®. To access the phase-solubility behavior of KU-32 in Captisol®, KU-32 in excess of its expected solubility were equilibrated with increasing concentrations of Captisol® in water. The suspensions were allowed to equilibrate at least 24-hours at 25° C., after which time the suspensions were centrifuged and the KU-32 concentration in the supernatant determined by RP-HPLC.

[3] = system: Experimental Autoimmune Encephalomyelitis; EAE; assay: Daily dosing in murine EAE multiple sclerosis model; format: in vivo, mice
Source text: In this example, female SJL/J mice (6-7 weeks old) were immunized with proteolipid protein (“PLP”) in CFA and pertussis toxin IV on day 0. The mice were boosted with PLP in IFA on day seven.

EAE model = assay: Single vs. weekly dosing in murine EAE MS model; format: in vivo, mice; settings: single 20 mg/kg IP dose at onset of symptoms, first onset of disease (10-20 days)
Procedure: In this example, female SJL/J mice (6-7 weeks old) were immunized with proteolipid protein (“PLP”) in CFA and pertussis toxin IV on day 0. The mice were boosted with PLP in IFA on day seven. At the onset of symptoms, mice received either a single 20 mg/kg dose of KU-32 IP, weekly 2 mg/kg IP doses of KU-32, or no treatment. The mice were scored daily for severity of disease and body weight.

[4] = system: neuregulin-induced demyelination; assay: Cell culture model of myelinated nerve; format: cell-based
Source text: Diabetic peripheral neuropathy (DPN) results from the degeneration of nerves that transmit sensations from the legs and arms. Schwann cells are specialized cells that closely associate with many nerves and also undergo profound changes in DPN. Schwann cells are necessary to form the myelin membrane that is present on many peripheral nerves and the loss of this myelin membrane is a common characteristic of human diabetic neuropathy. Identifying molecular mechanisms that may prevent demyelination or enhance remyelination are therefore good targets for therapeutic interventions in human DPN. Altered neurotrophism in DPN is described in detail in, for example, Dobrowsky et al., JPET 313:485-491, 2005. Heat shock protein 90 inhibitors offer a potential therapeutic approach toward treating DPN. A cell culture model of myelinated nerve was used to identify new molecular targets that can prevent demyelination.

[5] = system: streptozotocin (STZ)-induced diabetic neuropathy; assay: STZ-induced diabetic neuropathy mouse model, initial studies (treatment after 8 weeks of diabetes); format: in vivo
Procedure: Physiological studies were performed in a diabetic mouse model to determine if KU-32 is suitable for further pre-clinical development. A mouse model of streptozotocin (STZ)-induced diabetic neuropathy was utilized. One such diabetic mouse model is described, for example, in Christianson et al., Neuroscience, 2007, 145 (1): 303-313. […] Thus, although the drug was capable of attenuating the decline in SNCV, a more powerful indicator of efficacy and clinical usefulness was desired to indicate the drug could reverse a pre-existing deficit in NCV. […] The study was therefore repeated with a larger trial size and under more stringent long-term diabetic conditions prior to weekly drug administration.

[6] = system: streptozotocin (STZ)-induced diabetic neuropathy; assay: STZ-induced diabetic neuropathy mouse model, second trial (treatment after 12 weeks of diabetes); format: in vivo
Procedure: In a second trial, mice were rendered diabetic for 12 weeks. Diabetes was induced in test mice by 3 injections of streptozotocin (STZ) (n=28), and control mice (n=28) received a vehicle injection. Nerve conduction velocity (NCV) was measured in 4 mice from each group after 12 weeks, prior to initiating KU-32 treatment, after which time they developed substantial deficits in MNCV and SNCV (FIG. 7). Asterisks indicates p<0.05 compared to the time matched control. Diabetic mice also developed a substantial mechanical hypoalgesia after 5 weeks (FIG. 8) and a rapid onset of a thermal hypoalgesia (FIG. 9). Thus, any improvements by KU-32 were considered to be indicative of reversibility of a pre-existing deficits and not prevention.
After 12 weeks of diabetes, mice received weekly doses of 20 mg/kg KU-32 or vehicle by IP injection, and thermal and mechanical hypoalgesia were monitored. […] The asterisk indicates p<0.05 compared to the time matched control. The carat indicates p<0.05 compared to 14 weeks of STZ-Veh. Animal numbers were n=28 for Veh-Veh and STZ-Veh up to 12 weeks. Group numbers were n=12 at initiation of KU-32 and its vehicle (Veh).
The asterisk indicates p<0.05 compared to the time matched control, and the carat indicates p<0.05 compared to 14 weeks of STZ-Veh. Animal numbers were n=28 for Veh-Veh and STZ-Veh up to 12 weeks. Group numbers were n=12 at initiation of KU-32 and its vehicle (Veh).
Importantly, a similar recovery was evident after 12 weeks of diabetes despite the onset in improvement requiring 4 weeks of treatment. The delay may relate to the more severe decline in the function of the smaller sensory fibers since treatment was not started until 12 weeks of diabetes. The diabetic mice were very ill after 16 weeks and therefore were terminated at this time. […] Since the deficits in mechanical and thermal hypoalgesia reached a plateau between 12-14 weeks, the measures at 14 weeks of diabetes were used to assess for statistical improvements in sensory function after 3 or more weeks of KU-32 treatment. […] Thus, KU-32 improves nerve function in the absence of an overall improvement in metabolic parameters related to diabetes, i.e., hyperglycemia and weight loss. The data provides solid proof-of-principle that KU-32 can effectively reverse pre-existing deficits in two sensory measures that are direct, clinically relevant, parallels of human symptoms.

[7] = weekly 20 mg/kg IP after 8 weeks of diabetes, did not reach significance
[8] = diabetic animals receiving KU-32 compared to the diabetic mice

phase-solubility behavior ([2]; 0.05-0.2 M Captisol in water, at least 24 hours at 25° C., RP-HPLC): AP-type
solubility in 0.05 M Captisol ([2]; 0.05 M Captisol): adequate solubility
Structure (SMILES): CO[C@@H]1[C@@H](O)[C@@H](O)[C@H](Oc2ccc3cc(NC(C)=O)c(=O)oc3c2C)OC1(C)C [KU-32, N-(7-((2R,3R,4S,5R)-3,4-dihydroxy-5-methoxy-6,6-dimethyltetrahydro-2H-pyran-2-yloxy)-8-methyl-2-oxo-2H-chromen-3-yl)acetamide]
KU-32 levels in mouse plasma and brain over time [1]: fall below detectable limits by eight hours
Hsp70 levels in mouse brain (ratio of Hsp70 to actin) (Hsp70): increased following single IP injection of KU-32 in mice over a 72-96 hour period and remained elevated
body weights ([3]; SJL/J mice, 2, 5 or 10 mg/kg IP daily from day 12, FIG. 3): increase in the rate of onset and worsening of the disease
clinical score ([3]; SJL/J mice, 2, 5 or 10 mg/kg IP daily from day 12, FIG. 4): increase in the rate of onset and worsening of the disease
clinical score (EAE model; FIG. 5): better clinical score
body weight (EAE model; FIG. 6): lost less body weight
neuregulin-induced demyelination [4]: prevent neuregulin-induced demyelination
time to improvement in thermal sensitivity ([5]; treatment initiated after 8 weeks of diabetes): evident within two weeks
thermal hypoalgesia ([5]; weekly 20 mg/kg IP after 8 weeks of diabetes): sufficient to improve thermal hypoalgesia
sensory nerve conduction velocity (SNCV) ([5]; weekly 20 mg/kg IP after 8 weeks of diabetes, decrease observed after 15 weeks of diabetes): helped to improve the decrease in sensory nerve conduction velocity
mechanical hypoalgesia [5, 7]: seemed to have an effect on mechanical hypoalgesia
motor NCV (MNCV) deficit [5, 7]: improved the pre-existing motor NCV (MNCV) deficit
body weight [6, 8]: no differences
fasting blood glucose [6, 8]: no differences
onset in improvement of thermal sensitivity ([6]; treatment started after 12 weeks of diabetes): 4 weeks of treatment
mechanical hypoalgesia ([6]; weekly 20 mg/kg IP after 12 weeks of diabetes, FIG. 8): significantly improved the mechanical hypoalgesia after 3 weeks of treatment
thermal hypoalgesia ([6]; weekly 20 mg/kg IP after 12 weeks of diabetes, FIG. 9): improved thermal hypoalgesia
